In US20260028354A1, “TETRAHYDRONAPHTHALENE DERIVATIVES AS ESTROGEN RECEPTOR DEGRADERS” (REGENT OF THE UNIVERSITY OF MICHIGAN, priority 2022, published 2026):
Where two headings read alike, the source gives them in different places.

Tests used:
CRBN/DDB1 = CRBN/DDB1 (Homo sapiens (Human), UniProt Q96SW2); assay type: binding; conditions: His tagged CRBN+DDB1, Cy5-labeled Thalidomide probe, one hour; read-out: CRBN HTRF IC50
Protocol: The binding potency was determined using HTRF assay technology (Perkin Elmer). Compounds were serially diluted in DMSO and […] volume was transferred to white 384-well plate.

ER in MCF-7 cells = ER in MCF-7 cells (Homo sapiens (Human), UniProt P03372); test: In-cell Western (ICW) ER degradation assay in MCF-7 cells; assay type: cell-based; conditions: 16 hrs treatment; for Dmax: MCF7, MCF-7, maximal ER degradation, read-out: MCF7 Dmax; for DC50: MCF-7, ER degradation, read-out: MCF7 DC50
Sequence of ER in MCF-7 cells (P03372 whole entry): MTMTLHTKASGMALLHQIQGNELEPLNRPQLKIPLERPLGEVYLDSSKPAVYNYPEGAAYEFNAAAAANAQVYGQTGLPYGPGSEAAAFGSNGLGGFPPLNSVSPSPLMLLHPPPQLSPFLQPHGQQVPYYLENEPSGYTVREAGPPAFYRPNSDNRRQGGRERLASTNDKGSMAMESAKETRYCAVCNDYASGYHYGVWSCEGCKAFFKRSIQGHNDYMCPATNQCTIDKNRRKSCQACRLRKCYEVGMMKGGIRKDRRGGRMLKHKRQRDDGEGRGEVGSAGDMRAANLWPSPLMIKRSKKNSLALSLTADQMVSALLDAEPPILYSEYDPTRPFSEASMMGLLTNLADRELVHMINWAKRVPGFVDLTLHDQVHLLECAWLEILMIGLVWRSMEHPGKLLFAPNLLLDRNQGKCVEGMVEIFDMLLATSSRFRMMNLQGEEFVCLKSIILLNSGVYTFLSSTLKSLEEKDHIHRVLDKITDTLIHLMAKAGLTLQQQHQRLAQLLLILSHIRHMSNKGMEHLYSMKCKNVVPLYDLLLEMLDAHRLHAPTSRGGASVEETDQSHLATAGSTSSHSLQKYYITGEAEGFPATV

[1] = Cell growth assay (WST-8) for "B" compounds; assay type: cell-based; conditions: T47D, read-out: Cell growth Inhibition in T47D cell line IC50
Outline: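 Cells seeded at 1500/well overnight, then exposed to compounds for 4 days. 10% WST-8 added for 2.5 h at 37 °C and absorbance read at 450 nm. Growth given as absorbance relative to vehicle control, from three repeats.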

ER = ER (Homo sapiens (Human), UniProt P03372); test: In-cell western blot analysis of ER for "B" compounds; assay type: cell-based; conditions: 16 hours, read-out: ICW DC50
Sequence of ER (P03372 whole entry): as above
Outline: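 In-cell western: fixed cells stained with primary antibodies (2 h, RT), then anti-rabbit-680 and anti-mouse-800 secondaries (1:1000, 1 h, RT), imaged on a LI-COR plate reader. Relative ER level in treated wells expressed against untreated and DMSO-treated wells set as 100%.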

Sequence of CRBN/DDB1 (Q96SW2 whole entry, species assumed): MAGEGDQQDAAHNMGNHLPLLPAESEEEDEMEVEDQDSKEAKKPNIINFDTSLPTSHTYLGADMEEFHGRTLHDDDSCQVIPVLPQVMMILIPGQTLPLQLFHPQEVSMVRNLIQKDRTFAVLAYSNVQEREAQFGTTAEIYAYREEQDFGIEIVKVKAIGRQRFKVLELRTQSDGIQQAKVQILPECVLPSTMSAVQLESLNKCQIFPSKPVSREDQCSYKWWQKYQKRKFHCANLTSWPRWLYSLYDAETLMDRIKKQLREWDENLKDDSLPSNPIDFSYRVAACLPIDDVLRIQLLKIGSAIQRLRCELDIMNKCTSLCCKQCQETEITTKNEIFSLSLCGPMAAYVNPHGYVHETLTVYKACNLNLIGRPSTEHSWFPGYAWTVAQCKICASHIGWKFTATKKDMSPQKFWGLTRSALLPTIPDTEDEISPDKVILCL
Sequence of CRBN/DDB1 (Q16531 whole entry partner, species assumed): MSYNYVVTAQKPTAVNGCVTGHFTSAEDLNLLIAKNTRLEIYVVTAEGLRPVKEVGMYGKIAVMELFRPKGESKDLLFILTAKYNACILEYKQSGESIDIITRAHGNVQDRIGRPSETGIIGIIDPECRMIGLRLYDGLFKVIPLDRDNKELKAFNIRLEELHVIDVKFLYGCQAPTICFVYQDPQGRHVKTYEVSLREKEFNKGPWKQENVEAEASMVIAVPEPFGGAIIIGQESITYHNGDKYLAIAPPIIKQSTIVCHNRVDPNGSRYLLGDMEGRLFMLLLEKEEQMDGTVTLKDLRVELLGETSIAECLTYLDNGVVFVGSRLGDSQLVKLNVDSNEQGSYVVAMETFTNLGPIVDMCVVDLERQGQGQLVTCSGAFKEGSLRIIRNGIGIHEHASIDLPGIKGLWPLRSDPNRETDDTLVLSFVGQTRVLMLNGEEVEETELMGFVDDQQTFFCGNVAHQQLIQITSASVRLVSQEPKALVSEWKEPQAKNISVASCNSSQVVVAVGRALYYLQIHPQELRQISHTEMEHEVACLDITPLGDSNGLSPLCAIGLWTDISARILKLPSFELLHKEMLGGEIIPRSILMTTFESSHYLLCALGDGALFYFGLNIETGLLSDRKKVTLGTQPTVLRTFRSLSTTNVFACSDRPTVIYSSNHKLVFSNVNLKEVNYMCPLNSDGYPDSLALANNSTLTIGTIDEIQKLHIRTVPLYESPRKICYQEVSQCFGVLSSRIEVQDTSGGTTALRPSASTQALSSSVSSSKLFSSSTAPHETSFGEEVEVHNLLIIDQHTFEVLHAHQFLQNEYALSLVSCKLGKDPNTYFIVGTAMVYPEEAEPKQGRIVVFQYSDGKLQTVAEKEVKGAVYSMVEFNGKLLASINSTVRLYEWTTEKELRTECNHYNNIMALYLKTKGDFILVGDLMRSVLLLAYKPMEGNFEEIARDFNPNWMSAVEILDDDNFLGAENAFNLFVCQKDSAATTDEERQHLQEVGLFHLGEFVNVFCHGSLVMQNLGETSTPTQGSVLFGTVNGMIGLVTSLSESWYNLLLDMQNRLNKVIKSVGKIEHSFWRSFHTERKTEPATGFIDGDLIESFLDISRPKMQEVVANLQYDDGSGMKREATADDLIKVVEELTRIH

Compound | IC50 (CRBN/DDB1) | Dmax (ER in MCF-7 cells) | DC50 (ER in MCF-7 cells) | IC50 [1] | DC50 (ER) | IC50 ([1]; T47D cell line)
O=C1CC[C@H](N2Cc3cc4c(cc3C2=O)OC[C@@H]2CN(CC3CCC5(CC3)CN(c3ccc([C@@H]6c7ccc(O)cc7CC[C@@H]6c6ccccc6)cc3)C5)CCN42)C(=O)N1 (single isomer, unassigned) [Compound A63] | 500 to 5000 nM | – | – | – | – | –
O=C1CC[C@H](N2Cc3cc4c(cc3C2=O)OC[C@@H]2CN(CC3CC5(CCN(c6ccc([C@@H]7c8ccc(O)cc8CC[C@@H]7c7ccccc7)cn6)CC5)C3)CCN42)C(=O)N1 (single isomer, unassigned) [Compound A121] | 500 to 5000 nM | > 75% | 1 to 10 nM | – | – | –
COc1cc(N2CCC3(CC2)CC(CN2CCN4c5ccc6c(c5OC[C@H]4C2)CN([C@H]2CCC(=O)N(C)C2=O)C6=O)C3)ccc1[C@@H]1c2ccc(O)cc2CC[C@@H]1c1ccccc1 (single isomer, unassigned) [Compound A132] | 500 to 5000 nM | 50 to 75% | 1 to 10 nM | – | – | –
O=C1CC[C@H](N2Cc3cc4c(cc3C2=O)OC[C@@H]2CN(CC3CC5(CCN(c6ccc([C@@H]7c8ccc(O)cc8CC[C@@H]7c7ccccc7)cc6F)CC5)C3)CCN42)C(=O)N1 (single isomer, unassigned) [Compound A150] | 500 to 5000 nM | 50 to 75% | 10 to 100 nM | – | – | –
O=C1CC[C@H](N2Cc3cc4c(cc3C2=O)OC[C@@H]2CN(CC3CCC5(CC3)CN(c3ccc([C@H]6c7ccc(O)cc7CC[C@H]6c6ccccc6)cc3F)C5)CCN42)C(=O)N1 (single isomer, unassigned) [Compound A151] | 500 to 5000 nM | 25 to 50% | 10 to 100 nM | – | – | –
O=C1CC[C@H](N2Cc3c(ccc4c3OC[C@H]3CN(CC5CCC6(CC5)CN(c5ccc([C@@H]7c8ccc(O)cc8CC[C@@H]7c7ccccc7)cc5F)C6)CCN43)C2=O)C(=O)N1 (single isomer, unassigned) [Compound A152] | 500 to 5000 nM | 50 to 75% | 1 to 10 nM | – | – | –
O=C1CC[C@H](N2Cc3c(ccc4c3OC[C@H]3CN(CC5CCC6(CC5)CN(c5ncc([C@@H]7c8ccc(O)cc8CC[C@@H]7c7ccccc7)cn5)C6)CCN43)C2=O)C(=O)N1 (single isomer, unassigned) [Compound A156] | 50 to 500 nM | > 75% | < 1 nM | – | – | –
O=C1CC[C@H](N2Cc3cc4c(cc3C2=O)OC[C@@H]2CN(CC3CCC5(CC3)CN(c3ncc([C@H]6c7ccc(O)cc7CC[C@H]6c6ccccc6)cn3)C5)CCN42)C(=O)N1 (single isomer, unassigned) [Compound A157] | 500 to 5000 nM | < 25% | 10 to 100 nM | – | – | –
O=C1CC[C@H](N2Cc3cc4c(cc3C2=O)OC[C@@H]2CN(CC3CCC5(CC3)CN(c3ncc([C@@H]6c7ccc(O)cc7CC[C@@H]6c6ccccc6)cn3)C5)CCN42)C(=O)N1 (single isomer, unassigned) [Compound A158] | 500 to 5000 nM | 50 to 75% | < 1 nM | – | – | –
O=C1CC[C@H](N2Cc3c(ccc4c3OC[C@H]3CN(CC5CCC6(CC5)CN(c5ccc([C@H]7c8ccc(O)cc8CC[C@H]7c7ccccc7)cc5F)C6)CCN43)C2=O)C(=O)N1 (single isomer, unassigned) [Compound A159] | 50 to 500 nM | 25 to 50% | 10 to 100 nM | – | – | –
COc1cc(N2CC3(CCC(CN4CCN5c6ccc7c(c6OC[C@H]5C4)CN([C@H]4CCC(=O)NC4=O)C7=O)CC3)C2)c(F)cc1[C@@H]1c2ccc(O)cc2CC[C@@H]1c1ccccc1 (single isomer, unassigned) [Compound A163] | 50 to 500 nM | > 75% | 1 to 10 nM | – | – | –
COc1cc(N2CC3(CCC(CN4CCN5c6cc7c(cc6OC[C@@H]5C4)C(=O)N([C@H]4CCC(=O)NC4=O)C7)CC3)C2)c(F)cc1[C@@H]1c2ccc(O)cc2CC[C@@H]1c1ccccc1 (single isomer, unassigned) [Compound A164] | 500 to 5000 nM | > 75% | 1 to 10 nM | – | – | –
O=C1CCC(NC(=O)c2ccc(C3CCN(CC4CCN(c5ccc([C@@H]6c7ccc(O)cc7CC[C@@H]6c6ccccc6)cc5)CC4)CC3)cn2)C(=O)N1 (stereo partly drawn) [Compound A3, N-(2,6-dioxopiperidin-3-yl)-5-(1-((1-(4-((1R,2S)-6-hydroxy-2-phenyl-1,2,3,4-tetrahydro-naphthalen-1-yl)phenyl)piper-idin-4-yl)methyl)piperidin-4-yl)picolinamide] | > 5000 nM | 25 to 50% | < 1 nM | – | – | –
O=C1CC[C@H](N2Cc3c(ccc4c3OCC43CCN(CC4CCC5(CCN(c6ccc([C@@H]7c8ccc(O)cc8CC[C@@H]7c7ccccc7)cc6)CC5)OC4)CC3)C2=O)C(=O)N1 (stereo partly drawn) [Compound B366, (3S)-3-(1′-((9-(4-((1R,2S)-6-hydroxy-2-phenyl-1,2,3,4-tetrahydronaphthalen-1-yl)phenyl)-1-oxa-9-azaspiro[5.5]undecan-3-yl)methyl)-6-oxo-6,8-dihydro-2H,7H-spiro[furo[2,3-e]isoindole-3,4′-piperidin]-7-yl)piperidine-2,6-dione] | – | – | – | < 1 nM | < 10 nM | –
O=C1CCC(N2Cc3cc4c(cc3C2=O)OC[C@@H]2CN(CC(=O)N3CCC5(CC3)CCN(c3ccc([C@@H]6c7ccc8[nH]ncc8c7CC[C@@H]6c6ccccc6)cc3)CC5)CCN42)C(=O)N1 (stereo partly drawn) [Compound B389, 3-((S)-8-oxo-3-(2-oxo-2-(9-(4-((6R,7S)-7-phenyl-6,7,8,9-tetrahydro-3H-benzo[e]indazol-6-yl)phenyl)-3,9-diazaspiro[5.5]undecan-3-yl)ethyl)-1,2,3,4,4a,5,8,10-octahydro-9H-pyrazino[1′,2′:4,5][1,4]oxazino[2,3-f]isoindol-9-yl)piperidine-2,6-dione] | – | – | – | – | > 100 nM | > 10 nM
O=C1CCC(N2Cc3cc4c(cc3C2=O)OC[C@@H]2CN(CC(=O)N3CCC5(CC3)CCN(c3ccc([C@H]6c7ccc8[nH]ncc8c7CC[C@H]6c6ccccc6)cc3)CC5)CCN42)C(=O)N1 (stereo partly drawn) [Compound B390, 3-((S)-8-oxo-3-(2-oxo-2-(9-(4-((6S,7R)-7-phenyl-6,7,8,9-tetrahydro-3H-benzo[e]indazol-6-yl)phenyl)-3,9-diazaspiro[5.5]undecan-3-yl)ethyl)-1,2,3,4,4a,5,8,10-octahydro-9H-pyrazino[1′,2′:4,5][1,4]oxazino[2,3-f]isoindol-9-yl)piperidine-2,6-dione] | – | – | – | – | 10 to 100 nM | > 10 nM
O=C1CC[C@H](N2Cc3cc4c(cc3C2=O)OC[C@H](CN2CCC3(CC2)CCN(c2ccc([C@@H]5c6ccc(O)cc6CC[C@@H]5c5ccccc5)cc2)CC3)O4)C(=O)N1 [Compound B391, 3-((S)-2-((9-(4-((1R,2S)-6-hydroxy-2-phenyl-1,2,3,4-tetrahydronaphthalen-1-yl)phenyl)-3,9-diazaspiro[5.5]undecan-3-yl)methyl)-6-oxo-2,3,6,8-tetrahydro-7H-[1,4]dioxino[2,3-f]isoindol-7-yl)piperidine-2,6-dione] | – | – | – | – | > 100 nM | 1 to 10 nM
O=C1CC[C@H](N2Cc3cc4c(cc3C2=O)OC[C@@H]2CN(C[C@H]3COC5(CCN(c6ccc([C@@H]7c8ccc(O)cc8CC[C@@H]7c7ccccc7)cc6)CC5)C3)CCN42)C(=O)N1 [Compound B398, (S)-3-((S)-3-(((S)-8-(4-((1R,2S)-6-hydroxy-2-phenyl-1,2,3,4-tetrahydronaphthalen-1-yl)phenyl)-1-oxa-8-azaspiro[4.5]decan-3-yl)methyl)-8-oxo-1,2,3,4,4a,5,8,10-octahydro-9H-pyrazino[1′,2′:4,5][1,4]oxazino[2,3-f]isoindol-9-yl)piperidine-2,6-dione] | – | – | – | – | < 10 nM | < 1 nM
O=C1CC[C@H](N2Cc3cc4c(cc3C2=O)OC[C@@H]2CN(C[C@@H]3COC5(CCN(c6ccc([C@@H]7c8ccc(O)cc8CC[C@@H]7c7ccccc7)cc6)CC5)C3)CCN42)C(=O)N1 [Compound B399, (S)-3-((S)-3-(((R)-8-(4-((1R,2S)-6-hydroxy-2-phenyl-1,2,3,4-tetrahydronaphthalen-1-yl)phenyl)-1-oxa-8-azaspiro[4.5]decan-3-yl)methyl)-8-oxo-1,2,3,4,4a,5,8,10-octahydro-9H-pyrazino[1′,2′:4,5][1,4]oxazino[2,3-f]isoindol-9-yl)piperidine-2,6-dione] | – | – | – | – | < 10 nM | < 1 nM
O=C1CC[C@H](N2Cc3c(ccc4c3OCC43CCN(C[C@@H]4CCC5(CCN(c6ccc([C@@H]7c8ccc(O)cc8CC[C@@H]7c7ccccc7)cc6)CC5)OC4)CC3)C2=O)C(=O)N1 [Compound B400, (S)-3-(1′-(((S)-9-(4-((1R,2S)-6-hydroxy-2-phenyl-1,2,3,4-tetrahydronaphthalen-1-yl)phenyl)-1-oxa-9-azaspiro[5.5]undecan-3-yl)methyl)-6-oxo-6,8-dihydro-2H,7H-spiro[furo[2,3-e]isoindole-3,4′-piperidin]-7-yl)piperidine-2,6-dione] | – | – | – | < 1 nM | < 10 nM | –
O=C1CC[C@H](N2Cc3c(ccc4c3OCC43CCN(C[C@H]4CCC5(CCN(c6ccc([C@@H]7c8ccc(O)cc8CC[C@@H]7c7ccccc7)cc6)CC5)OC4)CC3)C2=O)C(=O)N1 [Compound B401, (S)-3-(1′-(((R)-9-(4-((1R,2S)-6-hydroxy-2-phenyl-1,2,3,4-tetrahydronaphthalen-1-yl)phenyl)-1-oxa-9-azaspiro[5.5]undecan-3-yl)methyl)-6-oxo-6,8-dihydro-2H,7H-spiro[furo[2,3-e]isoindole-3,4′-piperidin]-7-yl)piperidine-2,6-dione] | – | – | – | < 1 nM | < 10 nM | –
